Laboratory results taken from ChEMBL document CHEMBL5532634, “Oxazolidinone: A promising scaffold for the development of antibacterial drugs” (Eur J Med Chem, 2023).
Values after ≈ are worked out from the molar mass of the structure shown.

Legend:
[1] = system: Staphylococcus aureus; test: Antibacterial activity against methicillin-resistant Staphylococcus aureus ATCC 3300 assessed as reduction in microbial growth measured after 24 hrs by broth microdilution analysis; type: functional
[2] = system: Escherichia coli; test: Antibacterial activity against Escherichia coli; type: functional
[3] = system: Streptococcus pneumoniae; test: Antibacterial activity against Streptococcus pneumoniae; type: functional
[4] = system: Staphylococcus aureus; test: Antibacterial activity against Methicillin-resistant Staphylococcus aureus assessed as reduction in microbial growth by Muller Hinton broth based dilution assay; type: functional
[5] = system: Staphylococcus aureus; test: Antibacterial activity against Staphylococcus aureus ATCC 29213 assessed as bacterial growth inhibition incubated for 24 hrs by broth dilution method; type: functional
[6] = system: HT-29; test: Anticancer activity against human HT-29 cells assessed as inhibition of cell proliferative measured after 48 hrs by MTT assay; type: functional, cell-based; settings: HT-29, 48 h
[7] = system: MCF7; test: Anticancer activity against human MCF7 cells assessed as inhibition of cell proliferation measured after 48 hrs by MTT assay; type: functional, cell-based; settings: MCF7, 48 h
[8] = system: Enterococcus faecalis; test: Antibacterial activity against Enterococcus faecalis ATCC 29212 assessed as reduction in microbial growth after 24 hrs by two-fold serial dilution method; type: functional
[9] = system: Staphylococcus epidermidis; test: Antibacterial activity against methicillin-resistant Staphylococcus epidermidis ATCC 12228 assessed as reduction in microbial growth incubated for 18 hrs by broth microdilution method; type: functional
[10] = system: Enterococcus faecium; test: Antibacterial activity against Enterococcus faecium ATCC 19434 assessed as reduction in microbial growth after 24 hrs by two-fold serial dilution method; type: functional
[11] = system: Staphylococcus aureus; test: Antibacterial activity against vancomycin-resistant Staphylococcus aureus clinical isolate 1 assessed as inhibition of bacterial growth by broth microdilution method; type: functional
[12] = system: Staphylococcus aureus; test: Antibacterial activity against methicillin-resistant Staphylococcus aureus ATCC 4330 assessed as reduction in microbial growth incubated for 18 hrs by broth microdilution method; type: functional
[13] = system: Streptococcus pneumoniae; test: Antibacterial activity against Streptococcus pneumoniae ATCC 49619 assessed as inhibition of bacterial growth measured after 24 hrs by MH broth based assay; type: functional
[14] = system: Staphylococcus aureus; test: Antibacterial activity against Staphylococcus aureus ATCC 29213 assessed as reduction in microbial growth measured after 24 hrs by broth microdilution analysis; type: functional
[15] = system: Moraxella catarrhalis; test: Antibacterial activity against Moraxella catarrhalis UC30610 assessed as reduction in bacterial growth by broth microdilution method; type: functional
[16] = system: Staphylococcus aureus; test: In vivo Antibacterial activity against Methicillin-resistant Staphylococcus aureus in PO dosed mouse infected model assessed as reduction in bacterial load; type: functional
[17] = system: Enterococcus faecalis; test: Antibacterial activity against Enterococcus faecalis UC9217 assessed as reduction in bacterial growth by broth microdilution method; type: functional
[18] = system: Staphylococcus epidermidis; test: Antibacterial activity methicillin-resistant Staphylococcus epidermidis UC12084 assessed as reduction in bacterial growth by broth microdilution method; type: functional
[19] = system: Haemophilus influenzae; test: Antibacterial activity against Haemophilus influenzae UC30063 assessed as reduction in bacterial growth by broth microdilution method; type: functional
[20] = system: Enterococcus faecalis; test: Antibacterial activity against Enterococcus faecalis ATCC 29212 assessed as inhibition of bacterial growth incubated for 24 hrs by CLSI based broth microdilution method; type: functional
[21] = system: Staphylococcus aureus; test: Antibacterial activity against Staphylococcus aureus ATCC 25923 assessed as inhibition of bacterial growth incubated for 24 hrs by CLSI based broth microdilution method; type: functional
[22] = system: Staphylococcus aureus; test: Antibacterial activity against Linezolid-resistant Staphylococcus aureus assessed as reduction in bacterial growth; type: functional
[23] = system: Enterococcus faecium; test: Antibacterial activity against Linezolid-resistant Enterococcus faecium assessed as reduction in bacterial growth; type: functional
[24] = system: Staphylococcus epidermidis; test: Antibacterial activity against Staphylococcus epidermidis ATCC 12228 assessed as reduction in bacterial growth measured after 24 hrs by broth microdilution method; type: functional
[25] = system: Staphylococcus aureus; test: Antibacterial activity against Staphylococcus aureus ATCC 29213 assessed as reduction in bacterial growth incubated for 24 hrs by serial dilution method; type: functional
[26] = system: Mycobacterium tuberculosis; test: Antimycobacterial activity against Mycobacterium tuberculosis assessed as reduction in bacterial growth; type: functional
[27] = system: Staphylococcus aureus; test: Antibacterial activity against vancomycin-resistant Staphylococcus aureus assessed as bacterial growth inhibition measured after 16 to 18 hrs by serial dilution method; type: functional; settings: time 16-18 hrs
[28] = system: Staphylococcus aureus; test: Antibacterial activity against fluoroquinolone/methicillin resistant Staphylococcus aureus clinical isolate 19-26 assessed as bacterial growth inhibition measured after 16 to 18 hrs by serial dilution method; type: functional; settings: time 16-18 hrs

Molecule O=C1O[C@@H](COc2ccon2)CN1c1ccc(C2=CCOCC2)c(F)c1 has an MIC [1] of 0.5 µg/mL.

For O=C(NO)[C@@H]1CN(c2ccc(C#CC#CC3CC3)c(F)c2)C(=O)O1, the MIC [2] was 4 ng/mL (≈ 0.0122 µM) and the MIC [3] was 4 ng/mL (≈ 0.0122 µM).

O=C1O[C@@H](Cn2ccnn2)CN1c1ccc(N2CCN(S(=O)(=O)c3cccc(F)c3)CC2)c(F)c1 was tested, and the MIC [4] was 0.5 µg/mL.

For CO/C(S)=N\C[C@H]1CN(c2cc(F)c3c(c2)OC[C@@H]2CCCN32)C(=O)O1, the MIC [5] was 0.5 µg/mL (≈ 1.31 µM).

O=C1O[C@@H](COc2ccccn2)CN1c1ccc(C2=CCOCC2)c(F)c1 showed an MIC [1] of 1 µg/mL.

N=C(S)NC[C@H]1CN(c2cc(F)c3c(c2)OC[C@@H]2CCCN32)C(=O)O1 was tested, and the MIC [5] was 0.5 µg/mL (≈ 1.36 µM).

O=C1NC2(CO1)O/C(=C\c1ccc(Cl)cc1)C(=O)N2CCCNc1ccnc2cc(Cl)ccc12 (stereo not given) showed an IC50 [6] of 32.4 µM and an IC50 [7] of 16.1 µM.

Cn1nnc(-c2ccc(-c3ccc(N4C[C@H](COP(=O)(O)O)OC4=O)cc3F)cn2)n1 [TEDIZOLID PHOSPHATE] showed an MIC [8] of 0.25 µg/mL, an MIC90 [9] of 0.12 µg/mL and an MIC [10] of 0.25 µg/mL. For the same molecule, the MIC [11] was 0.25 µg/mL, the MIC50 [12] was 0.12 µg/mL and the MIC [13] was 0.25 µg/mL.

Work on O=C([C@H](O)CO)N1CC=C(c2ccc(N3C[C@H](COc4ccon4)OC3=O)cc2F)CC1 yielded an MIC [14] of 0.25 µg/mL.

Molecule CC(=O)NC[C@H]1CN(c2ccc(-n3ncc(C#N)n3)c(F)c2)C(=O)O1 has an MIC [15] of 2 µg/mL (≈ 5.81 µM), an ED50 [16] of 1.9 mg/kg and an MIC [17] of 0.125 µg/mL (≈ 0.363 µM). It also gave an MIC [18] of 0.125 µg/mL (≈ 0.363 µM) and an MIC [19] of 2 µg/mL (≈ 5.81 µM).

Work on CC(=O)NC[C@H]1CN(c2ccc(N3CCN(C(=O)/C=C/c4ccco4)CC3)nc2)C(=O)O1 yielded an MIC [20] of 8 µg/mL (≈ 18.2 µM) and an MIC [21] of 8 µg/mL (≈ 18.2 µM).

CC(=O)NC[C@H]1CN(c2ccc(N3CCN(c4cc5c(cc4F)c(=O)c(C(=O)O)cn5C4CC4)CC3)c(F)c2)C(=O)O1 showed an MIC [22] of 2 µg/mL (≈ 3.44 µM) and an MIC [23] of 0.5 µg/mL (≈ 0.86 µM).

In the case of CC(=O)NC[C@H]1CN(c2ccc(C3=CCOCC3)c(F)c2)C(=O)O1, the MIC [1] is reported as 0.13 µg/mL.

In the case of C/C(S)=N\C[C@H]1CN(c2cc(F)c3c(c2)OC[C@@H]2CCCN32)C(=O)O1, the MIC [5] is reported as 0.5 µg/mL (≈ 1.37 µM).

Work on O=C([C@H](O)CO)N1CC=C(c2ccc(N3C[C@H](COc4cnsn4)OC3=O)cc2F)CC1 yielded an MIC [24] of 0.13 µg/mL (≈ 0.28 µM).

CC(=O)NC[C@H]1CN(c2ccc(-n3cc(C(=O)O)c(=O)c4cc(F)c(N5CCN(C)CC5)cc43)c(F)c2)C(=O)O1 showed an MIC [25] greater than 64 µg/mL.

Molecule O=C1O[C@@H](Cn2ccnn2)CN1c1ccc(N2CCN(S(=O)(=O)c3ccc(Cl)cc3)CC2)c(F)c1 has an MIC [4] of 0.5 µg/mL.

For CC(=O)NC[C@H]1CN(c2ccc(N3CCSCC3)c(F)c2)C(=O)O1 [SUTEZOLID], the MIC [26] was 0.125 µg/mL (≈ 0.354 µM).

CC(=O)NC[C@H]1CN(c2ccc(N3CCN(c4c(F)cc5c(=O)c(C(=O)O)cn6c5c4OC[C@@H]6C)CC3)c(F)c2)C(=O)O1 gave an MIC [22] of 2 µg/mL (≈ 3.35 µM) and an MIC [23] of 0.5 µg/mL (≈ 0.837 µM).

O=C1C=CN(c2c(F)cc(N3C[C@H](CNc4ccon4)OC3=O)c(F)c2F)CC1 [CONTEZOLID] showed an MIC [27] of 0.5 µg/mL (≈ 1.22 µM) and an MIC [28] of 0.125 µg/mL (≈ 0.306 µM).
